Test results reported in PMC7315563, “Bioactive fluorenes. Part III: 2,7-dichloro-9H-fluorene-based thiazolidinone and azetidinone analogues as anticancer and antimicrobial against multidrug resistant strains agents” (BMC Chemistry, 2020).
Converted amounts (≈) assume the structure as drawn.

Key:
[1] = system: Staphylococcus aureus (S. aureus), multidrug resistant clinical isolate; assay: agar well diffusion assay; format: cell-based; settings: Staphylococcus aureus; S. aureus; 500 µg/mL of tested compound; 24 h
Description: (§1) All microbial strains were kindly provided from the department of Medical Microbiology and Immunology faculty of Medicine Assiut University, these clinical isolates were obtained from clinical cases of infections admitted to Assiut University hospital as urinary tract infections, corneal ulcers, bacterial and fungal pneumonia, otomycosis, oral thrush and wound infections.
(§2) The clinical isolates used were multidrug resistant strains, they were resistant to β lactam (penicillin, amoxacillin, oxacillin), cephalosporins (cefazolin, cefaclor and cefepime) and macrolides (erythromycin and clarithromycin), they included Gram positive bacteria as Staphylococcus aureus (S. aureus), Methicillin-resistant Staphylococcus aureus (MRSA), Streptococcus pneumoniae (S. pneumoniae), and Gram negative bacteria as Escherichia coli (E. coli), Klebsiella pneumoniae (K. pneumoniae), Pseudomonas aeruginosa (P. aeruginosa), and Acinetobacter baumannii (A. baumannii). The fungal strains that were tested are Aspergillus flavus (A. flavus), A. niger (A. niger) and Candida albicans (C. albicans).
(§3) The antimicrobial activity of the fluorene derivatives was initially evaluated by agar well diffusion assay. Mueller–Hinton agar (CM0337) was poured into Petri dishes at 50–60 °C and left to solidify for 15 min. Subsequently, overnight microbial suspensions of tested strains was adjusted to turbidity of 0.5 McFarland Standard, which equals to 1–2 × 10^8 CFU/mL for bacteria and 1–5 × 10^6 for fungi. The microbial inoculums were then diluted in 1:100 ratio in case of bacteria and 1:10 ratio in case of fungi in order to get 1–5 × 10^5 CFU/mL. a sterile cotton swab was dipped into the adjusted microbial suspension and the Mueller–Hinton agar plates were inoculated by evenly streaking cotton swab over the agar medium. Then wells with a diameter of 0.5 cm were cut in the medium with a sterile cork borer. Stock solutions of the flourene derivatives were diluted in DMSO 1% to get 500 μg/mL concentrations. The tested flourene derivatives and controls (50 μL) were dispensed into the wells. The plates were incubated for 24 h at 37 °C for bacteria and C. albicans while at 25 °C for A. falvus and A. niger. The diameters of zones of inhibition (ZOI) around the wells were measured in mm. Following control agents were used: positive control agents—vancomycin (50 μg/mL) for Gram positive bacteria, gentamicin (10 μg/mL) (for Gram negative bacteria) and fluconazole 25 μg/mL for fungi and negative control agent is 1% DMSO.

[2] = system: MDA-MB-231 human breast cancer cells; assay: cell viability assay (MTT); format: cell-based; settings: 24 h; for viability at 1 µg/mL: read-out: Validity (%) for sample concentrations (µg/mL) 1; for viability at 10 µg/mL: read-out: Validity (%) for sample concentrations (µg/mL) 10; for viability at 31.25 µg/mL: read-out: Validity (%) for sample concentrations (µg/mL) 31.25; for viability at 62.5 µg/mL: read-out: Validity (%) for sample concentrations (µg/mL) 62.5; for viability at 125 µg/mL: read-out: Validity (%) for sample concentrations (µg/mL) 125; for viability at 250 µg/mL: read-out: Validity (%) for sample concentrations (µg/mL) 250; for viability at 500 µg/mL: read-out: Validity (%) for sample concentrations (µg/mL) 500
Method in brief: (§4)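 Cells were grown in RPMI-1640 with 10% heat-inactivated FBS, seeded at 5000 cells/well, and next day exposed to fluorene derivatives at 0, 1, 10, 31.25, 62.5, 125, 250 or 500 µg/mL for 24 h. Viability was then measured by MTT, absorbance at 570 nm.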

[3] = system: WI-38 human normal fibroblast cells; assay: cell viability assay (MTT); format: cell-based; settings: 24 h; for viability at 31.25 µg/mL: read-out: Validity (%) for sample concentrations (µg/mL) 31.25; for viability at 62.5 µg/mL: 62.50 µg/mL, read-out: Validity (%) for sample concentrations (µg/mL) 62.50; for viability at 125 µg/mL: read-out: Validity (%) for sample concentrations (µg/mL) 125; for viability at 250 µg/mL: read-out: Validity (%) for sample concentrations (µg/mL) 250; for viability at 500 µg/mL: read-out: Validity (%) for sample concentrations (µg/mL) 500
Method in brief: as §4

[4] = system: A549 human lung cancer cells; assay: cell viability assay (MTT); format: cell-based; settings: 24 h; for viability at 1 µg/mL: read-out: Validity (%) for sample concentrations (µg/mL) 1; for viability at 10 µg/mL: read-out: Validity (%) for sample concentrations (µg/mL) 10; for viability at 31.25 µg/mL: read-out: Validity (%) for sample concentrations (µg/mL) 31.25; for viability at 62.5 µg/mL: 62.50 µg/mL, read-out: Validity (%) for sample concentrations (µg/mL) 62.50; for viability at 125 µg/mL: read-out: Validity (%) for sample concentrations (µg/mL) 125; for viability at 250 µg/mL: read-out: Validity (%) for sample concentrations (µg/mL) 250; for viability at 500 µg/mL: read-out: Validity (%) for sample concentrations (µg/mL) 500; for viability at 1000 µg/mL: read-out: Validity (%) for sample concentrations (µg/mL) 1000
A549 cells = assay: FACS analysis, Annexin V and PI staining; format: cell-based, human; settings: 24 h, 5g 500, 6c 85, 6d 117, 6k 200 µg/mL
Description: (§5) To uncover the mechanism of cell death for the compounds 5h, 6c, 6d and 6k on WI-38, A549, and MDA-MB-231 cells; Annexin v and propedium Iodide (PI) were used. In brief, WI-38, A549, MDA-MB-231 cells were cultured in 10 tissue culture dish with initial number 4 × 10^5 cell/Ml in RPMI growth media. In the following day, cells were treated with 6c, 6d and 6k as the following; (0.0, 500 μg/mL form each drug for WI-38 treatment, 0.0, 85, 117 and 200 μg/mL; respectively, for […] and 0.0, 250 from each for MDA-MB-231 cells treatment). After 24 h incubations, cells were washed and trypsinized and suspended in 50 μL 1X Annexin v binding buffer followed by adding 5 μL FITC Annexin V and incubated for 15 min at room temperature then 5 μL of PI were added to each tube. Finally, 400 μL of 1X Annexin v binding buffer were added to each tube and analyzed using Becton-Dickinson FACS Caliber.

WI-38 cells = assay: FACS analysis, Annexin V and PI staining; format: cell-based, human; settings: 24 h, 5g 1000 µg/mL, 6c, 6d, 6k 500 µg/mL
Description: as §5

MDA-MB-231 cells = assay: FACS analysis, Annexin V and PI staining; format: cell-based, human; settings: 24 h, 5g 500, 6c 105, 6d 170, 6k 130 µg/mL
Description: To uncover the mechanism of cell death for the compounds 5h, 6c, 6d and 6k on WI-38, A549, and MDA-MB-231 cells; Annexin v and propedium Iodide (PI) were used. In brief, WI-38, A549, MDA-MB-231 cells were cultured in 10 tissue culture dish with initial number 4 × 10^5 cell/Ml in RPMI growth media. […] After 24 h incubations, cells were washed and trypsinized and suspended in 50 μL 1X Annexin v binding buffer followed by adding 5 μL FITC Annexin V and incubated for 15 min at room temperature then 5 μL of PI were added to each tube. Finally, 400 μL of 1X Annexin v binding buffer were added to each tube and analyzed using Becton-Dickinson FACS Caliber.

[5] = system: Klebsiella pneumoniae (K. pneumoniae), multidrug resistant clinical isolate; assay: agar well diffusion assay; format: cell-based; settings: 24 h, 500 µg/mL of tested compound
Description: as §1, §2, §3

[6] = system: Escherichia coli (E. coli), multidrug resistant clinical isolate; assay: agar well diffusion assay; format: cell-based; settings: 24 h, 500 µg/mL of tested compound
Description: as §1, §2, §3

Structure (SMILES)	viability at 1 µg/mL [2] [%]	viability at 10 µg/mL [2] [%]	viability at 31.25 µg/mL [2] [%]	viability at 62.5 µg/mL [2] [%]	viability at 125 µg/mL [2] [%]	viability at 250 µg/mL [2] [%]	viability at 500 µg/mL [2] [%]	IC50 [2] [µg/mL]	viability at 31.25 µg/mL [3] [%]	viability at 62.5 µg/mL [3] [%]	viability at 125 µg/mL [3] [%]	viability at 250 µg/mL [3] [%]	viability at 500 µg/mL [3] [%]	IC50 [3] [µg/mL]	viability at 1 µg/mL [4] [%]	viability at 10 µg/mL [4] [%]	viability at 31.25 µg/mL [4] [%]	viability at 62.5 µg/mL [4] [%]	viability at 125 µg/mL [4] [%]	viability at 250 µg/mL [4] [%]	other results
O=C(O)c1ccc(C2SCC(=O)N2c2nc(-c3cc(Cl)cc4c3-c3ccc(Cl)cc3C4)cs2)cc1 (stereo not drawn) [5g, 4-(3-(4-(2,7-Dichloro-9H-fluoren-4-yl)thiazol-2-yl)-4-oxothiazolidin-2-yl)benzoic acid]	92.6	87.3	80.9	72.2	67.7	63.2	58.5	> 500	96.7	95.1	90.2	85.8	79.2	> 500	93.7	90.3	88.7	78.6	84.1	75.7	zone of inhibition at 500 µg/mL [1]: 10 mm; viability at 500 µg/mL [4]: 56.3%; viability at 1000 µg/mL [4]: 16.8%; IC50 [4]: 572 µg/mL (≈ 1060 µM); apoptotic cell death (of total cell number) (A549 cells): 1.25%; necrotic cell death (of total cell number) (A549 cells): 16.7%; apoptotic cell death (of total cell number) (WI-38 cells): 1.5%; necrotic cell death (of total cell number) (WI-38 cells): 15.8%; apoptotic cell death (of total cell number) (MDA-MB-231 cells): 1.34%; necrotic cell death (of total cell number) (MDA-MB-231 cells): 14.1%
O=C1CSC(c2ccnc3ccccc23)N1c1nc(-c2cc(Cl)cc3c2-c2ccc(Cl)cc2C3)cs1 (stereo not drawn) [5n, 3-(4-(2,7-Dichloro-9H-fluoren-4-yl)thiazol-2-yl)-2-(quinolin-4-yl)thiazolidin-4-one]	98.7	91	92.8	90.6	76.8	58.7	27.2	315 (≈ 576 µM)	54.3	51.5	50.8	46.4	40.5	130 (≈ 238 µM)	94.2	91.2	83.1	78.6	70.7	58.9	zone of inhibition at 500 µg/mL [5]: 5 mm; zone of inhibition at 500 µg/mL [1]: 7 mm; viability at 500 µg/mL [4]: 27.3%; viability at 1000 µg/mL [4]: 8.02%; IC50 [4]: 380 µg/mL (≈ 695 µM); melting point: 204 to 206 °C
O=C1C(Cl)C(c2ccccc2)N1c1nc(-c2cc(Cl)cc3c2-c2ccc(Cl)cc2C3)cs1 (stereo not drawn) [6a, 3-Chloro-1-(4-(2,7-dichloro-9H-fluoren-4-yl)thiazol-2-yl)-4-phenylazetidin-2-one]	99.4	92.4	90.7	83.1	78.3	69.6	63.2	> 500	71.1	66.1	59.1	49.1	47.1	241 (≈ 484 µM)	98.6	89.1	79.2	75.9	70.3	30.7	zone of inhibition at 500 µg/mL [6]: 13 mm; zone of inhibition at 500 µg/mL [1]: 5 mm; viability at 500 µg/mL [4]: 20.8%; viability at 1000 µg/mL [4]: 14.4%; IC50 [4]: 185 µg/mL (≈ 372 µM); melting point: 118 to 120 °C
O=C1C(Cl)C(C=Cc2ccccc2)N1c1nc(-c2cc(Cl)cc3c2-c2ccc(Cl)cc2C3)cs1 (stereo not drawn) [6i, 3-Chloro-1-(4-(2,7-dichloro-9H-fluoren-4-yl)thiazol-2-yl)-4-styrylazetidin-2-one]	94.2	89.1	66.8	55.9	49.2	24.3	18.2	120 (≈ 229 µM)	83.1	76.5	56.5	49.2	39.2	240 (≈ 458 µM)	96.6	91.9	89.4	78.1	76.3	67.9	zone of inhibition at 500 µg/mL [6]: 12 mm; zone of inhibition at 500 µg/mL [5]: 3 mm; viability at 500 µg/mL [4]: 53.3%; viability at 1000 µg/mL [4]: 49.4%; IC50 [4]: 801 µg/mL (≈ 1530 µM); melting point: 110 to 112 °C
